Reference: US6093717A, “Imidazopyridine thrombin inhibitors” (Merck & Co., Inc., priority 1999, dated 2000)
Structures can show the parent of a compound that is named as a salt.

target: human α-thrombin (Homo sapiens, UniProt P00734); assay: In vitro assay for determining proteinase inhibition: human α-thrombin; format: biochemical; details: 25° C., 0.05 M TRIS buffer pH 7.4, 0.15 M NaCl, 0.1% PEG, class symbols, read-out: Inhibitory activity (Ki)
Method: In Vitro Assay For Determining Proteinase Inhibition
The assays were carried out at 25° C. in 0.05 M TRIS buffer pH 7.4, 0.15 M NaCl, 0.1% PEG. Trypsin assays also contained 1 mM CaCl2.
Concentrations of stock solutions of Z-GPR-afc were determined from measurements of absorbance at 380 nm of the 7-amino-4-trifluoromethyl coumarin produced upon complete hydrolysis of an aliquot of the stock solution by thrombin.
Times required to achieve equilibration between enzyme and inhibitor were determined in control experiments. Initial velocities of product formation in the absence (Vo) or presence of inhibitor (Vi) were measured. Assuming competitive inhibition, and that unity is negligible compared Km /[S], […] (where [S], [I], and e respectively represent the total concentrations, of substrate, inhibitor and enzyme), the equilibrium constant (Ki) for dissociation of the inhibitor from the enzyme can be obtained from the dependence of Vo /Vi on [I] shown in equation 1.

SMILES | Ki [nM]
Cc1cnc(NCCc2ccccc2)c(=O)n1CC(=O)NCc1ccc2nccn2c1 [Example 1, dihydrochloride] | > 20
Cc1cc(CNC(=O)Cn2c(C)cnc(NCCc3ccccc3)c2=O)cn2ccnc12 [Example 3, dihydrochloride] | > 20
Cc1cc2nccn2cc1CNC(=O)Cn1c(C)cnc(NCCc2ccccc2)c1=O [Example 4, dihydrochloride] | > 20
Cc1cnc(NCCc2ccccc2)c(=O)n1CC(=O)NCc1ccn2ccnc2c1 [Example 5, 3-(2-Phenethyleneamino)-6-methyl-1-(6-methylenecarboxamidomethylene-imidazo[1,2-a]pyridinyl)-pyrazinone] | > 20
Cc1cc(S(=O)(=O)CC2CCC2)c(N)c(=O)n1CC(=O)NCc1ccc2nccn2c1C [Example 6, 3-Amino-4-cyclobutylmethylenesulfonyl-6-methyl-1-(4-methyl-5-methylenecarboxamidomethyleneimidazo[1,2-a]pyridinyl)-pyridinone hydrochloride] | < 20
CC[C@H](C)CC1Cc2cc(C)n(CC(=O)NCc3ccc4nccn4c3C)c(=O)c2NC1=O (stereo partly drawn) [Example 10, 7-(4-methyl-5-methylenecarboxamidomethyleneimidazo[1,2-a]pyridinyl)-3-[RS]-(2-[S]-methylbutyl)-6-methyl-2-oxo-1,2,3,4-tetrahydro-1,7-naphthiridin-[7H]-8-one] | < 20

Next, values leading:

Ki [nM] | SMILES
< 20 | Cc1cnc(NCCc2ccccn2)c(=O)n1CC(=O)NCc1ccc2nccn2c1C [Example 7, 3-[2-(2-Pyridyl)ethyleneamino]-6-methyl-1-(4-methyl-5-methylenecarboxamidomethyleneimidazo[1,2-a]pyridinyl)-pyrazinone]
< 20 | Cc1ccc(NS(=O)(=O)Cc2ccccc2)c(=O)n1CC(=O)NCc1ccc2nccn2c1C [Example 8, hydrochloride]
< 20 | Cc1cc2c(c(=O)n1CC(=O)NCc1ccc3nccn3c1C)NC(=O)[C@H](Cc1ccccc1)C2 [Example 9, [R]-7-(4-methyl-5-methylenecarboxamidomethyleneimidazo[1,2-a]pyridinyl)-3-benzyl-6-methyl-2-oxo-1,2,3,4-tetrahydro-1,7-naphthiridin-[7H]-8-one]
